{"source": "patent US4313937A", "about": "“Method for producing long-lasting analgesic effects of β-endorphin” (priority 1980, dated 1982)", "key": {"[1]": {"test_system": "patients with chronic intractable pain", "assay": "Clinical test of analgesia in patients with chronic intractable pain secondary to metastatic malignancies (visual pain scale)", "format": "in vivo, man", "experimental": "Twenty-three patients with chronic intractable pain in the back, chest, abdomen, rectum and/or thigh regions secondary to metastatic malignancies were selected for this test.\nThe protocol was explained to them, and informed consent was obtained. Systemic analgesics were withheld for at least 5 hours before administration of β-endorphin. Neurological examinations and electroencephalography (EEG) were performed immediately before and every 2 hours after the injection of β-endorphin. The visual pain scale (\"Adv. Neurol.\", 1974, 4, 281-283) was explained to each patient; baseline pain intensity was determined 30 min. before the injection.\nβ-Endorphin acetate used here was prepared to high purity according to the method described in the Biochem. Biophys. Res. Commun., 74, 248-255 (1977). β-Endorphin acetate, 3 mg (equivalent to 2.5 mg of dried free β-endorphin) with 150 mg of glucose and 3 ml of distilled water (in 8 patients, cases 1-8) or with 3 ml of physiological saline and no glucose (in 7 patients, cases 9-15), was injected into the subarachnoid space (cases 1-14) or epidural space (case 15) of the spinal cord by lumbar puncture between the 2nd and 3rd lumbar vertebrae. After the injection of β-endorphin acetate, the intensity of pain, vital signs, central-nervous-system examination, EEG, electrocardiogram (ECG), pulse rate, respiratory rate, blood-gas analysis, and body temperature were monitored. Simple behavioural parameters were also observed.\nIn a single-randomization design, three physicians administered successively β-endorphin acetate injection or physiological saline (as a placebo) in random order to 5 patients (cases 9-12, 14). All other patients received only β-endorphin acetate, without placebo.\nFor the purpose of comparison, β-endorphin acetate was injected intramuscularly (cases 18-20), intravenously (cases 16 and 17), and intracerebrally (cases 20-23).\nIn this test, all the injections of β-endorphin to patients were sterilized through Millipore filter."}, "patient": {"test_system": "patient", "conditions": "infusion into the cerebral ventricle; cited from earlier work"}, "[2]": {"test_system": "man and laboratory animals", "conditions": "intravenously or intramuscularly administered; cited from earlier work"}, "[3]": {"conditions": "epidural space, 3 mg acetate in 3 ml physiological saline, case 15"}, "[4]": {"conditions": "intracerebral (cerebral ventricle), comparison, cases 21-23"}, "[5]": {"conditions": "subarachnoid space, 3 mg acetate in 3 ml physiological saline, single patients (cases 9-14)"}, "[6]": {"conditions": "subarachnoid space, 3 mg acetate with 150 mg glucose in 3 ml distilled water, single patients (cases 1-8)"}}, "note": "Values joined by “and” are separate entries in the source; they are usually repeats but may differ in a detail not shown here. Equal entries are not always repeated. “Also recorded” adds a separate entry of the source."}
{"substance": "β-Endorphin acetate", "values": [{"measurement": "duration of drowsiness after injection", "setting": "[1]; 12 of 15 patients, subarachnoid or epidural space", "value": "1 to 4", "unit": "h"}, {"measurement": "time until pain disappeared after the injection", "setting": "[1]; 13 of the 15 patients, subarachnoid or epidural space", "value": "1 to 5", "unit": "min"}, {"measurement": "relief of pain reported", "setting": "[1]; all 15 patients, subarachnoid or epidural space of the spinal cord", "value": "complete relief of pain"}, {"measurement": "arousability", "setting": "[1]; all the patients, subarachnoid or epidural space", "value": "easily arousable by verbal stimuli"}, {"measurement": "duration of sleep after injection", "setting": "[1]; case No. 5 (in 40 min. after injection) and case No. 7 (in 10 min. after injection)", "value": "80 min and 110 min"}, {"measurement": "perception of venepuncture and light touch", "setting": "[1]; during the period of pain relief", "value": "remained intact"}, {"measurement": "abnormalities in the ECG or EEG", "setting": "[1]; during the procedure", "value": "No abnormalities"}, {"measurement": "Pain relief after β-endorphin, Duration", "setting": "[1]; [3]", "value": 68, "unit": "h"}, {"measurement": "Pain relief after β-endorphin, Onset", "setting": "[1]; [3]", "value": 2, "unit": "min"}, {"measurement": "Remarks", "setting": "[1]; epidural space, 3 mg acetate in physiological saline, case 15", "value": "Sleep"}, {"measurement": "duration of relief of pain", "setting": "[1]; injected into cerebral ventricle, all 3 patients", "value": "8 to 12", "unit": "h"}, {"measurement": "Pain relief after β-endorphin, Duration", "setting": "[1]; [4]", "value": "10 h and 12 h and 8 h"}, {"measurement": "Pain relief after β-endorphin, Onset", "setting": "[1]; [4]", "value": "3 min and 4 min"}, {"measurement": "analgesic effect", "setting": "[1]; intramuscular, 2 of 3 patients", "value": "no analgesic effect"}, {"measurement": "analgesic effect", "setting": "[1]; intravenous, one of 2 patients", "value": "no analgesic effect"}, {"measurement": "duration of analgesic effect", "setting": "[1]; intravenous, the other of 2 patients, considered to be placebo effect", "value": "one"}, {"measurement": "duration of pain relief after the injection, average", "setting": "[1]; subarachnoid or epidural space", "value": 33.4, "unit": "h"}, {"measurement": "signs of respiratory depression, arterial blood-gas changes, nausea, hypotension, hypothermia, catatonia, or muscle rigidity", "setting": "[1]; subarachnoid or epidural space", "value": "No signs"}, {"measurement": "discomfort caused by the injection", "setting": "[1]; subarachnoid or epidural space, all the patients", "value": "no discomfort"}, {"measurement": "Pain relief after β-endorphin, Duration", "setting": "[1]; [5]", "value": "24 h. and 25 h. and 47 h. and 731/2 and 51 h. and 221/2"}, {"measurement": "Pain relief after β-endorphin, Onset", "setting": "[1]; [5]", "value": "16 min and 2 min"}, {"measurement": "Remarks", "setting": "[1]; subarachnoid space, 3 mg acetate in physiological saline, single patients (cases 9-14)", "value": "Sleep; also recorded: Euphoria; also recorded: somnolence"}, {"measurement": "Pain relief after β-endorphin, Duration", "setting": "[1]; [6]", "value": "27 h. and 271/2 and 261/2 and 291/2 and 24 h. and 36 h. and 251/2 and 281/2"}, {"measurement": "Pain relief after β-endorphin, Onset", "setting": "[1]; [6]", "value": "5 min and 4 min and 1 min and 2 min"}, {"measurement": "Remarks", "setting": "[1]; subarachnoid space, 3 mg acetate with glucose, single patients (cases 1-8)", "value": "Somnolence; also recorded: Sleep; also recorded: somniloquy; also recorded: Euphoria"}, {"measurement": "duration of sleep after injection", "setting": "[1]; the other 6 of the 8 patients who slept", "value": "60 to 120", "unit": "min"}, {"measurement": "side effects", "setting": "patient", "value": "induces various undersirable side effects"}, {"measurement": "analgesia", "setting": "[2]", "value": "no statistically significant analgesia"}]}
